Each structure is given as a SMILES string.

The values below come from patent US20260008768A1, “UREA DERIVATIVES FOR INHIBITING NLRP3 AND USES THEREOF” (VENTUS THERAPEUTICS U.S., INC., priority 2023, published 2026).

In experiment [1] the target is T1, human NLRP3 (Homo sapiens, UniProt Q96P20). In words: Scintillation Proximity (SPA) NLRP3 Assay, displacement of 3H-MCC950. It counts as binding. As to conditions: for IC50: displacement of 3H-MCC950 from human NLRP3. In a few lines:
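Displacement of radioligand 3H-MCC950 (125 nM final) from 350 nM human NLRP3, read by scintillation proximity after 6 h equilibration with PVT beads. Buffer: 20 mM HEPES pH 7.5, 150 mM NaCl, 5 mM MgCl2, 100 μM ADP; compound preincubated 15 min, ligand 60 min, RT. IC50 from specific binding.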

Experiment [2] concerns the target T1, human NLRP3. Description: Human Whole Blood (hWB) NLRP3 Assay (LPS/ATP, IL-1β). It counts as cell-based. Details: host or cells: human whole blood from healthy volunteers (A3). The method in brief:
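Heparinized healthy-donor human whole blood primed with LPS 1 μg/ml for 4.5 h, with compound added 30 min before ATP activation, or compound added 30 min before 5 h LPS priming. ATP stimulation for 30 min at 37 °C, then plasma IL-1β measured by MSD immunoassay to give IC50.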

T1 sequence (Q96P20 whole entry): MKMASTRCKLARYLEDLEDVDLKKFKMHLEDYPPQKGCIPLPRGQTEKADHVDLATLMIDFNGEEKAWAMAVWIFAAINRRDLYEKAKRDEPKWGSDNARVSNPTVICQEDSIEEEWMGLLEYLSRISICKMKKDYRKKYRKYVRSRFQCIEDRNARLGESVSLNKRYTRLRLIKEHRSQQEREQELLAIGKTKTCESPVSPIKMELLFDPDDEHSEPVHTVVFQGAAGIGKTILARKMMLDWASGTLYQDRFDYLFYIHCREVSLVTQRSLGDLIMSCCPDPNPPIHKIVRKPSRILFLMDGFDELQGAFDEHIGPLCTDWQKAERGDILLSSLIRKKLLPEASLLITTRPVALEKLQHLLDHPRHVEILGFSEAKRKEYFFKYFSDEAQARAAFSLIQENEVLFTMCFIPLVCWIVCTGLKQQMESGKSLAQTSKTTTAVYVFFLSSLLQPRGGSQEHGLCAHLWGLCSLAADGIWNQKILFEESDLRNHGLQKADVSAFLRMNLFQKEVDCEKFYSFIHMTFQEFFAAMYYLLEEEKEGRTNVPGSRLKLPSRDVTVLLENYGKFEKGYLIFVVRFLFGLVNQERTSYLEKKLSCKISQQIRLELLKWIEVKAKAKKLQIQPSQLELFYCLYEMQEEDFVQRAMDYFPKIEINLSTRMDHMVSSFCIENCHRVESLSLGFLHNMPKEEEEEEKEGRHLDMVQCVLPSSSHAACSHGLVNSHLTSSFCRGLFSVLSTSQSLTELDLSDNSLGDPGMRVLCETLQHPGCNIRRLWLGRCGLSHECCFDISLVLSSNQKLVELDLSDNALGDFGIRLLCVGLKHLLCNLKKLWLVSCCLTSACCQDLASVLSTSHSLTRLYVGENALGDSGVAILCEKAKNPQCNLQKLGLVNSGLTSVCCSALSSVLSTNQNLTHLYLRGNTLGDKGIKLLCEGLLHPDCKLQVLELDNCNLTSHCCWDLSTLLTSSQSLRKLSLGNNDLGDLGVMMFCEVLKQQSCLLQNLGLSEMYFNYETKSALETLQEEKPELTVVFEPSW

As to `C[C@@H]1CCN(c2nnn[nH]2)C[C@H](NC(=O)N(C)c2ccc(OC(F)(F)F)cc2)C1` (single isomer, unassigned) [10A*], the IC50 at human NLRP3 [1] (Table B, activity class) was less than 1000 nM; at human NLRP3 [1] (Table C), 200 nM; against human NLRP3 [2] (Table B, activity class), less than 1000 nM; against human NLRP3 [2] (Table C), 300 nM.
For `C[C@@H]1CCN(c2nnn[nH]2)C[C@H](NC(=O)N(C)c2ccc(Cl)cc2)C1` (single isomer, unassigned) [4A*], the IC50 was less than 1000 nM at human NLRP3 [1] (Table B, activity class); 96 nM at human NLRP3 [1] (Table C); less than 1000 nM on human NLRP3 [2] (Table B, activity class); 150 nM at human NLRP3 [2] (Table C). At human NLRP3 [1] (relative to Comparative Example B1), the “fold improvement in binding activity (SPA IC50)” value is listed as greater than 1950 fold.
For the compound `C[C@@H]1CCN(c2nnn[nH]2)C[C@H](NC(=O)N(C)c2ccc(OC(F)F)cc2)C1` (single isomer, unassigned) [11A*], the IC50 on human NLRP3 [1] (Table B, activity class) was less than 1000 nM; at human NLRP3 [1] (Table C), 140 nM; on human NLRP3 [2] (Table B, activity class), less than 1000 nM; at human NLRP3 [2] (Table C), 58 nM. Further, the “fold increase in binding activity (SPA IC50)” value at human NLRP3 [1] (relative to Compound 39A) is reported as 5.9 fold.
